Reference: patent US20120189547A1 (priority 2009, published 2012)

Tests used:
[1] = In vivo biodistribution in naive male Sprague-Dawley rats; settings: rat; for Time at which regional differentiation remained apparent / Pituitary gland / Thalamus: male, Sprague-Dawley; for Time at which regional differentiation remained apparent / Pituitary gland / Thalamus / Clearance from whole brain after peak uptake: in vivo; for Whole brain uptake, peak: at the time of peak; for Regional differentiation between GABA-rich and GABA-poor regions of the brain: in vivo biodistribution; for Cerebellum / Hippocampus / Pons/Medulla / Pre-frontal cortex / Striatum: lateral tail vein, mean (SD), n = 3; for Pre-frontal cortex: thalmus: ratio
Procedure: Adult male Sprague-Dawley rats (body weight 202±37 g; mean±SD) were injected with between 1 and 5 MBq of [^18F]-Compound 1 via a lateral tail vein. All animals were conscious, but lightly restrained during injection and subsequently housed in short-term metabolism cages. At the appropriate time point; 30 seconds, 2, 10, 30 and 60 minutes post-injection (pi) (n=3 per time point), the animals were sacrificed by cervical dislocation. The brain and peripheral tissues or fluids were sampled post-mortem. Radioactivity in the brain samples was measured using a Wallac gamma counter. Once assayed, the brain samples, along with the remaining organ or tissue samples were assayed using a twin-crystal gamma-counter system (BASIL), with automatic correction for radioactive decay.
The biodistribution protocol described in Example 6 for Compound 1 was used to assess Compound 2.

[2] = cited from earlier work
[3] = test system: GABAA receptor; settings: cited from earlier work

Structure (SMILES): CCOC(=O)c1ncn2c1CN(C)C(=O)c1cc(OCC[18F])ccc1-2 [[18F]-Compound 1]
- Time at which regional differentiation remained apparent [1]: 30 minutes pi
- Pituitary gland ([1]; 0.5 min): 0.60 (0.1) % id/g
- Thalamus ([1]; 0.5 min): 0.30 (0.11) % id/g
- Pituitary gland ([1]; 2 min): 0.69 (0.13) % id/g
- Thalamus ([1]; 2 min): 0.47 (0.07) % id/g
- Pituitary gland ([1]; 10 min): 0.55 (0.10) % id/g
- Thalamus ([1]; 10 min): 0.39 (0.05) % id/g
- Pituitary gland ([1]; 30 min): 0.30 (0.02) % id/g
- Thalamus ([1]; 30 min): 0.24 (0.05) % id/g
- Pituitary gland ([1]; 60 min): 0.26 (0.08) % id/g
- Thalamus ([1]; 60 min): 0.20 (0.07) % id/g
- Time of peak whole brain uptake [1]: 10 minutes pi
- Whole brain uptake, peak [1]: 0.9%
- Clearance from whole brain after peak uptake [1]: slow with a decreasing rate
- Regional differentiation between GABA-rich and GABA-poor regions of the brain [1]: good
- Cerebellum ([1]; 0.5 min post-injection): 0.28 (0.06) % id/g
- Hippocampus ([1]; 0.5 min post-injection): 0.26 (0.08) % id/g
- Pons/Medulla ([1]; 0.5 min post-injection): 0.23 (0.04) % id/g
- Pre-frontal cortex ([1]; 0.5 min post-injection): 0.33 (0.1) % id/g
- Striatum ([1]; 0.5 min post-injection): 0.26 (0.07) % id/g
- Cerebellum ([1]; 2 min post-injection): 0.43 (0.03) % id/g
- Hippocampus ([1]; 2 min post-injection): 0.43 (0.06) % id/g
- Pons/Medulla ([1]; 2 min post-injection): 0.34 (0.02) % id/g
- Pre-frontal cortex ([1]; 2 min post-injection): 0.57 (0.02) % id/g
- Striatum ([1]; 2 min post-injection): 0.41 (0.04) % id/g
- Cerebellum ([1]; 10 min post-injection): 0.36 (0.05) % id/g
- Hippocampus ([1]; 10 min post-injection): 0.43 (0.07) % id/g
- Pons/Medulla ([1]; 10 min post-injection): 0.28 (0.05) % id/g
- Pre-frontal cortex ([1]; 10 min post-injection): 0.53 (0.09) % id/g
- Striatum ([1]; 10 min post-injection): 0.36 (0.04) % id/g
- Cerebellum ([1]; 30 min post-injection): 0.23 (0.04) % id/g
- Hippocampus ([1]; 30 min post-injection): 0.32 (0.05) % id/g
- Pons/Medulla ([1]; 30 min post-injection): 0.18 (0.04) % id/g
- Pre-frontal cortex ([1]; 30 min post-injection): 0.35 (0.07) % id/g
- Striatum ([1]; 30 min post-injection): 0.21 (0.04) % id/g
- Cerebellum ([1]; 60 min post-injection): 0.20 (0.05) % id/g
- Hippocampus ([1]; 60 min post-injection): 0.26 (0.07) % id/g
- Pons/Medulla ([1]; 60 min post-injection): 0.19 (0.05) % id/g
- Pre-frontal cortex ([1]; 60 min post-injection): 0.24 (0.06) % id/g
- Striatum ([1]; 60 min post-injection): 0.18 (0.04) % id/g
- Pre-frontal cortex: thalmus ([1]; 0.5 min post-injection): 1.13
- Pre-frontal cortex: thalmus ([1]; 2 min post-injection): 1.23
- Pre-frontal cortex: thalmus ([1]; 10 min post-injection): 1.35
- Pre-frontal cortex: thalmus ([1]; 30 min post-injection): 1.44
- Pre-frontal cortex: thalmus ([1]; 60 min post-injection): 1.21

Structure (SMILES): CN1Cc2c(C(=O)OC(C)(C)C)ncn2-c2ccc(OCC[18F])cc2C1=O [[18F]-Compound 2]
- Time at which regional differentiation remained apparent [1]: 10 minutes pi
- Pituitary gland ([1]; 0.5 min): 0.82 (0.21) % id/g
- Thalamus ([1]; 0.5 min): 0.67 (0.12) % id/g
- Pituitary gland ([1]; 2 min): 1.07 (0.19) % id/g
- Thalamus ([1]; 2 min): 0.78 (0.20) % id/g
- Pituitary gland ([1]; 10 min): 0.69 (0.11) % id/g
- Thalamus ([1]; 10 min): 0.69 (0.12) % id/g
- Pituitary gland ([1]; 30 min): 0.64 (0.04) % id/g
- Thalamus ([1]; 30 min): 0.62 (0.12) % id/g
- Pituitary gland ([1]; 60 min): 0.51 (0.04) % id/g
- Thalamus ([1]; 60 min): 0.49 (0.02) % id/g
- Time of peak whole brain uptake [1]: 2 minutes pi
- Whole brain uptake, peak [1]: 0.82%
- Clearance from whole brain after peak uptake [1]: slow with a decreasing rate
- Regional differentiation between GABA-rich and GABA-poor regions of the brain [1]: good
- Cerebellum ([1]; 0.5 min post-injection): 0.75 (0.10) % id/g
- Hippocampus ([1]; 0.5 min post-injection): 0.63 (0.08) % id/g
- Pons/Medulla ([1]; 0.5 min post-injection): 0.58 (0.09) % id/g
- Pre-frontal cortex ([1]; 0.5 min post-injection): 0.80 (0.05) % id/g
- Striatum ([1]; 0.5 min post-injection): 0.63 (0.05) % id/g
- Cerebellum ([1]; 2 min post-injection): 0.82 (0.19) % id/g
- Hippocampus ([1]; 2 min post-injection): 0.89 (0.20) % id/g
- Pons/Medulla ([1]; 2 min post-injection): 0.61 (0.14) % id/g
- Pre-frontal cortex ([1]; 2 min post-injection): 1.07 (0.29) % id/g
- Striatum ([1]; 2 min post-injection): 0.71 (0.16) % id/g
- Cerebellum ([1]; 10 min post-injection): 0.74 (0.08) % id/g
- Hippocampus ([1]; 10 min post-injection): 0.94 (0.06) % id/g
- Pons/Medulla ([1]; 10 min post-injection): 0.56 (0.09) % id/g
- Pre-frontal cortex ([1]; 10 min post-injection): 1.04 (0.15) % id/g
- Striatum ([1]; 10 min post-injection): 0.61 (0.10) % id/g
- Cerebellum ([1]; 30 min post-injection): 0.59 (0.06) % id/g
- Hippocampus ([1]; 30 min post-injection): 0.75 (0.03) % id/g
- Pons/Medulla ([1]; 30 min post-injection): 0.52 (0.05) % id/g
- Pre-frontal cortex ([1]; 30 min post-injection): 0.75 (0.06) % id/g
- Striatum ([1]; 30 min post-injection): 0.55 (0.096) % id/g
- Cerebellum ([1]; 60 min post-injection): 0.47 (0.02) % id/g
- Hippocampus ([1]; 60 min post-injection): 0.53 (0.01) % id/g
- Pons/Medulla ([1]; 60 min post-injection): 0.45 (0.02) % id/g
- Pre-frontal cortex ([1]; 60 min post-injection): 0.51 (0.03) % id/g
- Striatum ([1]; 60 min post-injection): 0.45 (0.02) % id/g
- Pre-frontal cortex: thalmus ([1]; 0.5 min post-injection): 1.22
- Pre-frontal cortex: thalmus ([1]; 2 min post-injection): 1.36
- Pre-frontal cortex: thalmus ([1]; 10 min post-injection): 1.51
- Pre-frontal cortex: thalmus ([1]; 30 min post-injection): 1.23
- Pre-frontal cortex: thalmus ([1]; 60 min post-injection): 1.05

Structure (SMILES): CCOC(=O)c1ncn2c1CN(CC[18F])C(=O)c1cc(F)ccc1-2 [[18F]FEFMZ, [18F]fluoroethylflumazenil]
- Clearance following administration in vivo ([2]; in vivo): too rapid

Structure (SMILES): CN1Cc2c(C(=O)OCC[18F])ncn2-c2ccc(F)cc2C1=O [[18F]FFMZ, [18F]fluoroflumazenil]
- Selective binding to GABAA receptors ([3]; reported in prior art): high selective binding
- Brain uptake ([2]; reported in prior art): high

Structure (SMILES): CCOC(=O)c1ncn2c1CN(C)C(=O)c1cc([18F])ccc1-2 [[18F]FMZ, [18F]flumazenil]
- Ki ([3]; prior art statement): ~0.5 nM
